Results: patent US9593139B2, “Compositions, methods, and kits comprising platinum compounds associated with a ligand comprising a targeting moiety” (priority 2013, dated 2017)

Key:
A2780 cells = test: MTT cytotoxicity assay, cisplatin-sensitive ovarian cancer cell line; format: cell-based; settings: 72 h incubation
Procedure: (§1) A2780 and A2780CP70 (ovarian cisplatin-sensitive and -resistant) cell lines were obtained from Fox Chase Cancer Center and cultured in RPMI-1640 medium supplemented with 10% fetal bovine serum (FBS) and 1% penicillin/streptomycin.
(§2) The colorimetric MTT assay was used to assess cytotoxicity. In a 96-well plate, 2000 cells per well were seeded in 100 μL growth medium and allowed to attach overnight. The growth media was then aspirated and replaced with 100 μL of growth medium containing varying concentrations of the platinum complexes. Six wells were used per concentration level. After 72 h, the platinum-containing media was aspirated and replaced with 200 μL of RPMI-1640 containing 0.67 mg/mL MTT. The cells were further incubated for 4 h. The MTT solution was removed, and the resulting purple formazan crystals were dissolved in 100 μL of 25:1 mixture of DMSO and aqueous ammonia. The absorbance was measured at 550 nm. The absorbance values were normalized to the Pt-free wells (100% cell viability) and are plotted versus platinum concentration. […] These experiments were repeated at least three times, and the reported IC50 values are the averages of these trials with the error estimated from the resulting standard deviations.

A2780CP70 cells = test: MTT cytotoxicity assay, cisplatin-resistant ovarian cancer cell line; format: cell-based; settings: for IC50: A2780CP70 (cisplatin-resistant), MTT, 72 h incubation; for R.F. (resistance factor, IC50(resistant)/IC50(sensitive)): A2780CP70 vs A2780, 72 h incubation
Procedure: as §1, §2

Question: How did the IC50 (A2780 cells) turn out when “[Pt(succac)(NH3)2]-r(Fxr)3-CONH2 [Pt-MPP]” was run?
Answer: 7.5 ± 0.3 µM

Question: What about the IC50 (A2780CP70 cells) of the same compound?
Answer: 5 ± 1.4 µM

Question: What about the “R.F. (resistance factor, IC50(resistant)/IC50(sensitive))” value (A2780CP70 cells) of the same compound?
Answer: 0.7±0.2

Question: Which IC50 (A2780 cells) does the source give for `N.N.[Cl][Pt][Cl]` [cisplatin, cis-diamminedichloroplatinum(II)] here?
Answer: 0.6 ± 0.08 µM

Question: What about the IC50 (A2780CP70 cells) of the same compound?
Answer: 5.2 ± 1.4 µM

Question: What about the “R.F. (resistance factor, IC50(resistant)/IC50(sensitive))” value (A2780CP70 cells) of the same compound?
Answer: 8.7 ± 2.6

Question: What does the source list for [Pt(acac)(NH3)2](SO4)0.5?
Answer: IC50 (A2780 cells): 13.9 ± 1.9 µM; IC50 (A2780CP70 cells): 122 ± 10 µM; R.F. (resistance factor, IC50(resistant)/IC50(sensitive)) (A2780CP70 cells): 8.8 ± 1.4

Question: With `O=C1[O][Pt-2]2([NH2+]C3CCCC[C@H]3[NH2+]2)[O]C1=O` (stereo partly drawn) [Oxaliplatin, (R,R-1,2-diaminocyclohexane)oxalatoplatinum(II)] as the compound, how does the IC50 (A2780 cells) read?
Answer: 0.25 µM

Question: What about the IC50 (A2780CP70 cells) of the same compound?
Answer: 1 µM

Question: What about the “R.F. (resistance factor, IC50(resistant)/IC50(sensitive))” value (A2780CP70 cells) of the same compound?
Answer: 4.1 ± 0.4
